In patent US20240166658A1, “PORPHYRIN DERIVATIVES AND USES THEREOF” (University of Tasmania, priority 2021, published 2024):

Legend:
[1] = UV-Vis host-guest titration, association constant; assay type: binding; details: host (9) in dichloromethane; triplicate, TBA salt and acid; Bindfit
Procedure: (§1) Path length of the quartz cell was 1 cm. For UV-vis titrations, a stock solution of host was prepared (2.2×10^−3 M) in dichloromethane (DCM) and serially diluted to the required concentrations. Working solutions of tetrabutylammonium (TBA) anion salts or guest molecules were prepared in the same manner Host−guest titrations used solutions of guest prepared in the working concentration of host solution, according to the procedure of Thordarson, 2011.
(§2) UV-vis spectroscopic host−guest titrations were performed in accordance with the methodologies of Thordarson, 2011. Solutions of host in dichloromethane were prepared. Solutions of guest were then prepared in the host solution. Aliquots of guest in host solution were added to host solution and sequentially analysed until a known molar equivalent of guest was added. The amount of guest added per aliquot was ascertained by a preliminary screening experiment; strong association constants required smaller molar equivalents so more information could be collected. By way of example, host (9) responded to 0.1 molar equivalent of PFBA strongly, so an addition of 1 molar equivalent of PFBA would result in a loss of information. The inverse is true for weaker binding interactions. […]
(§3) A host solution of host (9) in dichloromethane was monitored using UV-Vis analysis as 0.5-10 equivalents of each PFAS was added. […]

[2] = UV-Vis host-guest titration, association constant; assay type: binding; details: host (9) in dichloromethane; triplicate, TBA salt and acid; Bindfit; remark: listed apart in the source
Procedure: as §1, §2, §3

[3] = UV-Vis host-guest titration, association constant; assay type: binding; details: host (9) in dichloromethane; triplicate, TBA salt and acid; Bindfit; remark: listed apart in the source
Procedure: as §1, §2, §3

[4] = PFCA guest response screening (RGB analysis, UV-Vis)
Procedure: A Puluz® 20 cm portable light tent with moderate and dispersed white LED lighting was used to photograph samples using an iPhone 6S plus camera on a fixed tripod. The automatic flash settings were disabled so there was no reflective interference on the sample vials. Samples that were being directly compared were photographed together to ensure lighting conditions and settings were consistent. The photographs were analysed using ImageJ software according to the procedure of Gallagher, 2014b. Multiple RGB values were chosen from areas of each sample at random to provide an “average” RGB value (Menesatti et al., 2012; Gallagher, 2014a; Phuangsaijai et al., 2021). Those RGB values were used to produce an artificial colour tile for visual comparison, or parameterized for modelling.
To quantify a colour difference, RGB values were transformed within the CIELab colour space. The difference, expressed as ΔE, was determined by measuring the relative distance between two colours. The numeric ΔE value can be used to predict how the two colours are perceived by a standard observer; a ΔE>2 is considered the minimum value to achieve a “just noticeable difference” (JND) (Table 1), which is the smallest difference required for an untrained observer to be able to determine two colours as being different (Castillo et al., 2021).
Experiments were performed at concentrations that could be monitored by the naked eye for practical sensing of PFAS in the field. Complexes of hosts (9), (11) and (12) were formed with the nine different perfluorocarboxylic acids (PFCAs) shown in Table 2 above and the colours of each host−PFCA complex were photographed in a lightbox and analysed using ImageJ software RGB analysis. Pixels of the solution were chosen at random to provide an RGB value. Multiple RGB values were recorded for each host−PFCA solution, and an average colour can be produced. From those values an RGB parameter was used to give a response value for modelling (Tahir et al., 2016).
After preliminary screenings, UV-Vis spectra were collected before and after the addition of 1 molar equivalent of each PFCA for each host, and the degree of complexation was noted by shifts in the Soret bands and formation of a peak at ca. 650 nm. To eliminate dilution effects, PFCA guest solutions were prepared in the equivalent concentration of host. If there was a notable host−guest interaction for a particular PFCA, the host−guest binding was investigated with more rigorous UV-Vis experiments, binding studies, and further colour analyses. Throughout these investigations, PFOA was considered the “average” PFCA both because of its position in the range of PFCA sizes and because its prevalence is often an indication of broader PFAS contamination. In any experiment where binding was further investigated for a particular PFCA, it was typically replicated with PFOA for comparison.

[5] = UV-Vis host-guest titration, association constant; assay type: binding; details: host (9) in dichloromethane; triplicate, TBA salt and acid; Bindfit; remark: listed apart in the source
Procedure: as §1, §2, §3

[6] = Non-fluorinated and neutral fluorinated guest molecules, UV-Vis; assay type: binding; details: 10 molar equivalents, dichloromethane; immediately and 24 hours later
Procedure: The binding interaction was probed by combining the host (9) with non-fluorinated and neutral fluorinated guest molecules. Solutions of host (9) in dichloromethane were combined with 10 molar equivalents of tetrafluorobenzene and nonanoic acid. Solutions were analysed using UV-Vis spectroscopy (immediately and 24 hours later) to check for any indication of binding.

[7] = host + one equivalent PFBA in dichloromethane
[8] = host + one equivalent PFDA in dichloromethane
[9] = host + one equivalent PFDoDA in dichloromethane
[10] = host + one equivalent PFHpA in dichloromethane
[11] = host + one equivalent PFHxA in dichloromethane
[12] = host + one equivalent PFNA in dichloromethane
[13] = host + one equivalent PFOA in dichloromethane
[14] = host + one equivalent PFPeA in dichloromethane
[15] = host + one equivalent PFUnDA in dichloromethane

O=C(Nc1ccccc1-c1c2nc(c(-c3ccccc3NC(=O)C(F)(F)C(F)(F)C(F)(F)C(F)(F)C(F)(F)C(F)(F)C(F)(F)F)c3ccc([nH]3)c(-c3ccccc3NC(=O)C(F)(F)C(F)(F)C(F)(F)C(F)(F)C(F)(F)C(F)(F)C(F)(F)F)c3nc(c(-c4ccccc4NC(=O)C(F)(F)C(F)(F)C(F)(F)C(F)(F)C(F)(F)C(F)(F)C(F)(F)F)c4ccc1[nH]4)C=C3)C=C2)C(F)(F)C(F)(F)C(F)(F)C(F)(F)C(F)(F)C(F)(F)C(F)(F)F [host (9), α,α,α,α-5,10,15,20-tetrakis(2-(pentadecafluorooctanoylamino)phenyl)porphyrin]
K value (averaged association constant Ka) [1]: 15272
K value (averaged association constant Ka) [2]: 23968
K value (averaged association constant Ka) [3]: 392106
Absorbance @ 650 nm [4, 7]: 0.04939
Absorbance @ 650 nm [4, 8]: 0.03023
Absorbance @ 650 nm [4, 9]: 0.01719
Absorbance @ 650 nm [4, 10]: 0.04879
Absorbance @ 650 nm [4, 11]: 0.04964
Absorbance @ 650 nm [4, 12]: 0.02986
Absorbance @ 650 nm [4, 13]: 0.02885
Absorbance @ 650 nm [4, 14]: 0.04302
Absorbance @ 650 nm [4, 15]: 0.02958
ΔEHost-PFCA ([4]; host vs host + PFBA): 46.1
ΔEHost-PFCA ([4]; host vs host + PFDA): 39.6
ΔEHost-PFCA ([4]; host vs host + PFDoDA): 22.4
ΔEHost-PFCA ([4]; host vs host + PFHpA): 47.2
ΔEHost-PFCA ([4]; host vs host + PFHxA): 47.3
ΔEHost-PFCA ([4]; host vs host + PFNA): 38.5
ΔEHost-PFCA ([4]; host vs host + PFOA): 39.3
ΔEHost-PFCA ([4]; host vs host + PFPeA): 46.2
ΔEHost-PFCA ([4]; host vs host + PFUnDA): 38.5
K value (averaged association constant Ka) [5]: 12999
colorimetric response [6]: no colorimetric response

O=C(Nc1ccccc1-c1c2nc(c(-c3ccccc3NC(=O)C(F)(F)C(F)(F)C(F)(F)C(F)(F)C(F)(F)C(F)(F)C(F)(F)C(F)(F)C(F)(F)C(F)(F)C(F)(F)F)c3ccc([nH]3)c(-c3ccccc3NC(=O)C(F)(F)C(F)(F)C(F)(F)C(F)(F)C(F)(F)C(F)(F)C(F)(F)C(F)(F)C(F)(F)C(F)(F)C(F)(F)F)c3nc(c(-c4ccccc4NC(=O)C(F)(F)C(F)(F)C(F)(F)C(F)(F)C(F)(F)C(F)(F)C(F)(F)C(F)(F)C(F)(F)C(F)(F)C(F)(F)F)c4ccc1[nH]4)C=C3)C=C2)C(F)(F)C(F)(F)C(F)(F)C(F)(F)C(F)(F)C(F)(F)C(F)(F)C(F)(F)C(F)(F)C(F)(F)C(F)(F)F [host (12), α,α,α,α-5,10,15,20-tetrakis(2-(tricosafluorododecanoylamino)phenyl) porphyrin]
Absorbance @ 650 nm [4, 7]: 0.0906
Absorbance @ 650 nm [4, 8]: 0.0918
Absorbance @ 650 nm [4, 9]: 0.0769
Absorbance @ 650 nm [4, 10]: 0.0737
Absorbance @ 650 nm [4, 11]: 0.0728
Absorbance @ 650 nm [4, 12]: 0.0953
Absorbance @ 650 nm [4, 13]: 0.0913
Absorbance @ 650 nm [4, 14]: 0.0692
Absorbance @ 650 nm [4, 15]: 0.0808
ΔEHost-PFCA ([4]; host vs host + PFBA): 21.1
ΔEHost-PFCA ([4]; host vs host + PFDA): 22.3
ΔEHost-PFCA ([4]; host vs host + PFDoDA): 17.9
ΔEHost-PFCA ([4]; host vs host + PFHpA): 16.3
ΔEHost-PFCA ([4]; host vs host + PFHxA): 17.5
ΔEHost-PFCA ([4]; host vs host + PFNA): 22.3
ΔEHost-PFCA ([4]; host vs host + PFOA): 21.8
ΔEHost-PFCA ([4]; host vs host + PFPeA): 9.8
ΔEHost-PFCA ([4]; host vs host + PFUnDA): 18.8
